Here are results for 24 compounds from ChEMBL document CHEMBL5442175, “EUbOPEN Chemogenomics Library - PDSP Secondary Binding” (2024).

Structures can show the parent of a compound that is named as a salt.

The Ki is the dissociation constant of the complex between target and ligand, obtained from inhibition or displacement.

The target in one assay is D(1B) dopamine receptor (Homo sapiens, UniProt P21918). Briefly: PDSP Secondary Binding target: DRD5 - Compounds are tested at 10 uM concentration, plate are incubated at room temperature in the dark for 90 minutes. Reaction are stopped by vacuum filtration onto 0.3% polyethyleneimine soaked filter mats using Filtermate harvester. Scintillation cocktail is then melted onto microwave-dried filters on a hot plate and the radio activity is counted in Microbia counter.

Another assay concerns the target D(1A) dopamine receptor (Homo sapiens, UniProt P21728). Briefly: PDSP Secondary Binding target: DRD1 - Compounds are tested at 10 uM concentration, plate are incubated at room temperature in the dark for 90 minutes. Reaction are stopped by vacuum filtration onto 0.3% polyethyleneimine soaked filter mats using Filtermate harvester. Scintillation cocktail is then melted onto microwave-dried filters on a hot plate and the radio activity is counted in Microbia counter.

Assay [1] has as its target T1, Muscarinic acetylcholine receptor M2 (Homo sapiens, UniProt P08172).
T1 sequence (P08172 whole entry): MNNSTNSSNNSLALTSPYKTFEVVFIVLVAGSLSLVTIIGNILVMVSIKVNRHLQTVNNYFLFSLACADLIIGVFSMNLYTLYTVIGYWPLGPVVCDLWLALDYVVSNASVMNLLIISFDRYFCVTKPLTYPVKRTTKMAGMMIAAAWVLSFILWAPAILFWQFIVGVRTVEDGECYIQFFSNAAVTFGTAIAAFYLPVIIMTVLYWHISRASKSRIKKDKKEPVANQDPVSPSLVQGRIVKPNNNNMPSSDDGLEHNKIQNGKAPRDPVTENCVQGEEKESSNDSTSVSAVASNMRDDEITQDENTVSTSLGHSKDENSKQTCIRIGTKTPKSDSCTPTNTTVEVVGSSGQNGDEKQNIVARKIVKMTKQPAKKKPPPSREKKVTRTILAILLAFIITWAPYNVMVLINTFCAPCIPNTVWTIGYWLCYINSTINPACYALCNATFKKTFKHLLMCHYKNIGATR
Briefly: PDSP Secondary Binding target: CHRM2 - Compounds are tested at 10 uM concentration, plate are incubated at room temperature in the dark for 90 minutes. Reaction are stopped by vacuum filtration onto 0.3% polyethyleneimine soaked filter mats using Filtermate harvester. Scintillation cocktail is then melted onto microwave-dried filters on a hot plate and the radio activity is counted in Microbia counter.

The next assay deals with Translocator protein (Homo sapiens, UniProt P30536). Description: PDSP Secondary Binding target: TSPO - Compounds are tested at 10 uM concentration, plate are incubated at room temperature in the dark for 90 minutes. Reaction are stopped by vacuum filtration onto 0.3% polyethyleneimine soaked filter mats using Filtermate harvester. Scintillation cocktail is then melted onto microwave-dried filters on a hot plate and the radio activity is counted in Microbia counter.

Assay [2] addresses Muscarinic acetylcholine receptor M3 (Homo sapiens, UniProt P20309). Description: PDSP Secondary Binding target: CHRM3 - Compounds are tested at 10 uM concentration, plate are incubated at room temperature in the dark for 90 minutes. Reaction are stopped by vacuum filtration onto 0.3% polyethyleneimine soaked filter mats using Filtermate harvester. Scintillation cocktail is then melted onto microwave-dried filters on a hot plate and the radio activity is counted in Microbia counter.

Assay [3] deals with Delta-type opioid receptor (Homo sapiens, UniProt P41143). Briefly: PDSP Secondary Binding target: OPRD1 - Compounds are tested at 10 uM concentration, plate are incubated at room temperature in the dark for 90 minutes. Reaction are stopped by vacuum filtration onto 0.3% polyethyleneimine soaked filter mats using Filtermate harvester. Scintillation cocktail is then melted onto microwave-dried filters on a hot plate and the radio activity is counted in Microbia counter.

In assay [4] the target is Beta-1 adrenergic receptor (Homo sapiens, UniProt P08588). Description: PDSP Secondary Binding target: ADRB1 - Compounds are tested at 10 uM concentration, plate are incubated at room temperature in the dark for 90 minutes. Reaction are stopped by vacuum filtration onto 0.3% polyethyleneimine soaked filter mats using Filtermate harvester. Scintillation cocktail is then melted onto microwave-dried filters on a hot plate and the radio activity is counted in Microbia counter.

Assay [5] deals with Beta-3 adrenergic receptor (Homo sapiens, UniProt P13945). Description: PDSP Secondary Binding target: ADRB3 - Compounds are tested at 10 uM concentration, plate are incubated at room temperature in the dark for 90 minutes. Reaction are stopped by vacuum filtration onto 0.3% polyethyleneimine soaked filter mats using Filtermate harvester. Scintillation cocktail is then melted onto microwave-dried filters on a hot plate and the radio activity is counted in Microbia counter.

In a further assay the target is Histamine H4 receptor (Homo sapiens, UniProt Q9H3N8). Description: PDSP Secondary Binding target: HRH4 - Compounds are tested at 10 uM concentration, plate are incubated at room temperature in the dark for 90 minutes. Reaction are stopped by vacuum filtration onto 0.3% polyethyleneimine soaked filter mats using Filtermate harvester. Scintillation cocktail is then melted onto microwave-dried filters on a hot plate and the radio activity is counted in Microbia counter.
Histamine H4 receptor, sequence (Q9H3N8 whole entry): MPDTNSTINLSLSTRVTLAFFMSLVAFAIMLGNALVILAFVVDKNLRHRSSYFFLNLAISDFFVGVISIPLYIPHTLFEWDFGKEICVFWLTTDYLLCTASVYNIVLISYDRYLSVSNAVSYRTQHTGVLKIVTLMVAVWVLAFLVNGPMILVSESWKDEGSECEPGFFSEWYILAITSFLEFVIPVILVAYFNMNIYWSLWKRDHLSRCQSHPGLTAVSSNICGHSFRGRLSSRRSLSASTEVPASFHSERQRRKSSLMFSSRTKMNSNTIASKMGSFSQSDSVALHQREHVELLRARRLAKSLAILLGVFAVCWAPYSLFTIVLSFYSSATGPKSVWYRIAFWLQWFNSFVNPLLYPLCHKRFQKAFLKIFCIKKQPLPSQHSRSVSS

D(1B) dopamine receptor, sequence (P21918 whole entry): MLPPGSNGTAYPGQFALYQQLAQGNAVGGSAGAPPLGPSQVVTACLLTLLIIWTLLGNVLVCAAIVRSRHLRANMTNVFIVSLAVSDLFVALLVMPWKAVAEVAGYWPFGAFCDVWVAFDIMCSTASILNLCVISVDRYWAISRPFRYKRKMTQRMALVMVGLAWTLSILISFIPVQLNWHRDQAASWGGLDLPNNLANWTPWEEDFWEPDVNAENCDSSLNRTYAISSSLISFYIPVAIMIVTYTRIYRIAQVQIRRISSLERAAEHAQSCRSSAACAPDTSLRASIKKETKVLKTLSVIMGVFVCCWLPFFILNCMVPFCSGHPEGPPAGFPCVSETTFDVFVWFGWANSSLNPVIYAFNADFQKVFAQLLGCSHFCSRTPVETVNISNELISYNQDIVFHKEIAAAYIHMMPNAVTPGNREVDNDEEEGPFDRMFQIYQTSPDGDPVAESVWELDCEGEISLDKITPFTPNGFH
Translocator protein, sequence (P30536 whole entry): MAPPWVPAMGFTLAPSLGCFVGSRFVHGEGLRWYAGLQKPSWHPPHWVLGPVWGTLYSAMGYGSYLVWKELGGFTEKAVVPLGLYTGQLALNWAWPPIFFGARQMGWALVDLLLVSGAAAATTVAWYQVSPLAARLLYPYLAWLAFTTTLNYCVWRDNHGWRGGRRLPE
D(1A) dopamine receptor, sequence (P21728 whole entry): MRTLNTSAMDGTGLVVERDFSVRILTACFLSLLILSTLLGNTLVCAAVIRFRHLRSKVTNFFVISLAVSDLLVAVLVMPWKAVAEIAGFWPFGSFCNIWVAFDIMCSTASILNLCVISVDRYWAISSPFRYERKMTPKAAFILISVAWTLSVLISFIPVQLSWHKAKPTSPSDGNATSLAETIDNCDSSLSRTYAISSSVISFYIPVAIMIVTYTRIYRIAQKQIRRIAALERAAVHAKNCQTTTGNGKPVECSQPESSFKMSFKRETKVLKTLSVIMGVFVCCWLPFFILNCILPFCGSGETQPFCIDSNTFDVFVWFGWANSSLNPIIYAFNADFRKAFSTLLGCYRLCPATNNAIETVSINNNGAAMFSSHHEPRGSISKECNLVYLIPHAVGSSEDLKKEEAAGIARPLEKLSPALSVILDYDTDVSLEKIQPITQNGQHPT
Beta-1 adrenergic receptor, sequence (P08588 whole entry): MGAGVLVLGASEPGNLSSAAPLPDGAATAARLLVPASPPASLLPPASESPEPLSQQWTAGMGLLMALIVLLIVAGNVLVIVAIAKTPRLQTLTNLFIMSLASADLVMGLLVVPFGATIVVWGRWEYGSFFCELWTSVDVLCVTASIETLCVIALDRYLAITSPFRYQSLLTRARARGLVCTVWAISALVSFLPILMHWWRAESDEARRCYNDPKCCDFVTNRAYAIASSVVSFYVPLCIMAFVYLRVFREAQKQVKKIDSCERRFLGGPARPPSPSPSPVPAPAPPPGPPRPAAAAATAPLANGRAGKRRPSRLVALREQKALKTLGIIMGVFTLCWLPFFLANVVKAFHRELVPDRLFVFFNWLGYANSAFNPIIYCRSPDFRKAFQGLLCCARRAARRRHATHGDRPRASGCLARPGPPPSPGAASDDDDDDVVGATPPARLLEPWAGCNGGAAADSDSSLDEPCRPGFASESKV
Beta-3 adrenergic receptor, sequence (P13945 whole entry): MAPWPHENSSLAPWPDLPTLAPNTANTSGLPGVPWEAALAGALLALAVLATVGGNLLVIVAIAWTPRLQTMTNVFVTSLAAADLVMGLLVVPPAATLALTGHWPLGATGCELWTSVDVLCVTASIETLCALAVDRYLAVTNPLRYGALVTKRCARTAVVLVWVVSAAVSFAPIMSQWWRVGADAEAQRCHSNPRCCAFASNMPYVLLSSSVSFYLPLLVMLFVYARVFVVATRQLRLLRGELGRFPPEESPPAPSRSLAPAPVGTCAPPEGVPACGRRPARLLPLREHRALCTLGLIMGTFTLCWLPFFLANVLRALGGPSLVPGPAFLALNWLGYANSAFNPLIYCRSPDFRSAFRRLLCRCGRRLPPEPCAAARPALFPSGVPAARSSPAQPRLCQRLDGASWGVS
Muscarinic acetylcholine receptor M3, sequence (P20309 whole entry): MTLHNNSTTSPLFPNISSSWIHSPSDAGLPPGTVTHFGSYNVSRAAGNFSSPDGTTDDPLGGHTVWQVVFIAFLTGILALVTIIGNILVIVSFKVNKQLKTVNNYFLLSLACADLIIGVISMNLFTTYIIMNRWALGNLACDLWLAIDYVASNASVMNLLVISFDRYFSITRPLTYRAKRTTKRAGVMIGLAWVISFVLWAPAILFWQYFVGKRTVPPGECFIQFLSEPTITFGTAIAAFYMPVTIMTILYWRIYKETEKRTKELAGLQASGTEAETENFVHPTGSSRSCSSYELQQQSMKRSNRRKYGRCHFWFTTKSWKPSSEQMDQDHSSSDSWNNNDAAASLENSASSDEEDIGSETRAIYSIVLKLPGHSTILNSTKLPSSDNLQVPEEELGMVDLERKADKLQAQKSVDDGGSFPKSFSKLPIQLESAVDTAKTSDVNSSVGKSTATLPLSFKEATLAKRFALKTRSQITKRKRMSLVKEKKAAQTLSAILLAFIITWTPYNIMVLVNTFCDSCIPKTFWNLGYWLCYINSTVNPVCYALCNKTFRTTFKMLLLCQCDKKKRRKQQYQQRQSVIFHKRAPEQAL
Delta-type opioid receptor, sequence (P41143 whole entry): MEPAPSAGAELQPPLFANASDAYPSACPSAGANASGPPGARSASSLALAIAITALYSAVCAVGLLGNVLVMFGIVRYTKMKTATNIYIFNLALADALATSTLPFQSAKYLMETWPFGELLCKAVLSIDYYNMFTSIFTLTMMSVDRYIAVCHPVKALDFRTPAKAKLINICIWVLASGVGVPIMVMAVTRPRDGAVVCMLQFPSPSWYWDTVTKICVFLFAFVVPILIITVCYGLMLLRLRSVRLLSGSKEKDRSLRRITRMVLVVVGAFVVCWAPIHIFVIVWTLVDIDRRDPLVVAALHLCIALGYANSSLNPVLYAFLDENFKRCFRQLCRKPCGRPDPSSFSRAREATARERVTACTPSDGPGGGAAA

For `S=C(NCCCc1c[nH]cn1)NCCCN(Cc1ccc(Cl)c(Cl)c1)c1ccc(Br)cn1`, the results for the inhibition constant (Ki) at D(1B) dopamine receptor and on D(1A) dopamine receptor were 1.98 µM and 1.72 µM, respectively.

On to `CN1CCC(=C2c3ccccc3CC(=O)c3sccc32)CC1` [KETOTIFEN FUMARATE], for which the Ki on D(1B) dopamine receptor worked out at 2.66 µM; at D(1A) dopamine receptor it was 0.299 µM; in assay [1] it was 0.244 µM.

As for `COC(=O)C1=C(C)NC(C)=C(C(=O)OCCCN2CCC(c3ccccc3)(c3ccccc3)CC2)[C@H]1c1cccc([N+](=O)[O-])c1` [NIGULDIPINE], the Ki was 1.24 µM at D(1B) dopamine receptor; 0.37 µM at D(1A) dopamine receptor; 0.953 µM on Translocator protein; 2.15 µM in assay [2]; 0.399 µM in [3].

As for `Clc1cccc(COc2cncc(N3CCNCC3)n2)c1`, the values for the Ki in assay [2] and in [4] were 0.851 µM and 2.03 µM, respectively.

Consider `COc1ccc(NS(=O)(=O)c2sc3ccc(Cl)cc3c2C)cc1N1CCNCC1`, for which the Ki amounted to 2.1 µM in assay [5] and 4.46 µM in assay [4].

As to `Cc1nc2sccn2c(=O)c1CCN1CCC(=C(c2ccc(F)cc2)c2ccc(F)cc2)CC1` [RITANSERIN], the results for the inhibitory constant (Ki) on D(1B) dopamine receptor and on D(1A) dopamine receptor were 0.493 µM and 0.33 µM, respectively.

For the compound `COc1cc(-n2cnc3cc(-c4ccc(Cl)cc4)sc3c2=O)ccc1OCCN1CCCC1`, the results for the Ki (on Histamine H4 receptor; in assay [2]) were greater than 10 µM and 4.13 µM, respectively.

Take `CCCCCNC(=N)N/N=C/c1c[nH]c2ccc(OC)cc12` [TEGASEROD MALEATE]: the inhibition constant Ki was 4.12 µM at D(1B) dopamine receptor and 4.94 µM in assay [5].

With `CCOC(=O)c1c(C)[nH]c2ccc3c(c12)CN1CCc2cc(OC)ccc2C1O3` (centres undefined), the Ki in assay [2] is 0.173 µM.

As for `CN(C)C(=O)N[C@H]1CC[C@H](CCN2CCN(c3cccc(Cl)c3Cl)CC2)CC1` [CARIPRAZINE HYDROCHLORIDE], affinity in assay [4] was put at a Ki of 0.222 µM.

With `COc1ccc(NC(=O)c2ccc(-c3ccc(-c4noc(C)n4)cc3C)cc2)cc1OCCN(C)C`, the Ki in assay [1] worked out at 0.641 µM.

In the case of `CN1CCN(c2ccc(Nc3c4ccccc4nc4ccccc34)cc2)CC1`, the inhibition constant (Ki) on D(1A) dopamine receptor amounted to 4.54 µM; in [1], 0.204 µM.

With `Cc1cn2cc(CC(=O)N3CCC4(CC3)CN(Cc3ccc(-n5nccn5)cc3Cl)C4)nc2s1`, the Ki in assay [1] worked out at 0.243 µM; in assay [2], 1.53 µM.

Take `CN1C2CCC1CC(OC(c1ccc(F)cc1)c1ccc(F)cc1)C2` (centres undefined): the Ki on D(1B) dopamine receptor amounted to 0.393 µM; in assay [2], 0.00582 µM.

In the case of `CN1CCCC(n2nc(Cc3ccc(Cl)cc3)c3ccccc3c2=O)CC1` (centres undefined) [AZELASTINE HYDROCHLORIDE], the Ki in [5] was greater than 10 µM; on D(1A) dopamine receptor, 0.577 µM; in assay [2], greater than 10 µM.

As to `Cc1c(P(=S)(c2ccccc2)c2ccccc2)n2ccccc2[n+]1C/C=C/c1ccccc1`, the inhibition constant (Ki) in assay [5] was determined as 2.05 µM; in assay [1], 0.805 µM; in [2], 1.14 µM.

`Cc1nc(-c2ccc(-c3ccc(C(=O)N4CCc5cc6c(cc54)C4(CCN(C)CC4)CO6)cc3)c(C)c2)no1` [SB-224289]: the Ki on D(1B) dopamine receptor was determined as 1.08 µM; at D(1A) dopamine receptor, 0.369 µM; in assay [2] it was 0.926 µM.

As to `CCc1ccc(OCc2ccccc2C(=O)Nc2ccc3nc(C)cc(N)c3c2)cc1`, the Ki in assay [5] was 6.31 µM; at Translocator protein it was 4.01 µM.

In the case of `COc1cccc([C@@H](C)NCCCc2ccccc2Cl)c1` [TECALCET HYDROCHLORIDE], in assay [5], the inhibition constant Ki is greater than 10 µM.

Regarding `Cc1cc(C)cc(-c2cnc3cc(Cl)c(-c4cccc(O)c4)cc3c2OCCCN)c1`, the Ki on D(1B) dopamine receptor was found to be 0.993 µM; in [5], 2.78 µM; on Translocator protein, 0.522 µM.

The compound `CN1C[C@H](C(=O)N[C@]2(C)O[C@@]3(O)[C@@H]4CCCN4C(=O)[C@H](Cc4ccccc4)N3C2=O)C[C@@H]2c3cccc4[nH]cc(c34)C[C@H]21` [DIHYDROERGOTAMINE MESYLATE] came in with an inhibition constant Ki on D(1B) dopamine receptor of 2.95 µM.

Regarding `O=c1ccc2ccc(OCCCCN3CCN(c4cccc5sccc45)CC3)cc2[nH]1` [BREXPIPRAZOLE], the Ki on D(1B) dopamine receptor stood at 0.344 µM; on D(1A) dopamine receptor, 0.0375 µM.

Take `NC[C@@H]1O[C@H](C23CC4CC(CC(C4)C2)C3)Cc2c1ccc(O)c2O`: at D(1B) dopamine receptor, the affinity, expressed as Ki, was 0.00302 µM.

As to `CCc1nn(CCCN2CCN(c3cccc(Cl)c3)CC2)c(=O)n1CCOc1ccccc1` [NEFAZODONE HYDROCHLORIDE], the inhibition constant Ki on Translocator protein was determined as 1.99 µM.
